Data reported in US4329347A, “Cardiotonic and antithrombotic sulfur-containing derivatives of carbostyril” (Boehringer Ingelheim GmbH, priority 1978, dated 1982).
Read-outs that look alike come from different tables or passages of the source.

Legend:
[1] = tested on: thrombocyte aggregation in platelet-rich plasma of healthy human donors; test: Thrombocyte aggregation inhibiting activity by the method of Born and Cross (platelet-rich plasma); format: cell-based; conditions: optical density
Method: 1. Determination of the thrombocyte aggregation inhibiting activity by the method of Born and Cross [J. Physiol. 170, 397 (1964)]:
The thrombocyte aggregation was measured in the platelet-rich plasma of healthy human donors. The decrease in optical density was measured and recorded photometrically after the addition of adenosine diphosphate or collagen. From the angle of inclination of the density curve, the rate of aggregation was estimated (Vmax). The optical density was taken as the point on the curve where the most light was transmitted (O.D.).
The EC50 values in the tables indicate the optical density.
Small doses of collagen were chosen, but sufficient to give irreversible aggregation. To provoke maximum aggregation, about 0.01 ml of the collagen solution was added to 1 ml of platelet-rich plasma. (Commercial collagen of Hormonchemie, Munich). The adenosine diphosphate (ADP) doses were chosen to give only the first phase of the BORN curve. The necessary amount of ADP was about 1×10^-6 mol/l. Commercial ADP of Boehringer Mannheim was used.
The substance dose which produced a 50% inhibition of the thrombozytes aggregation (EC50) was determined graphically.

conscious mice = test: Prolongation of the bleeding time (mouse tail); format: in vivo; conditions: po, 10 mg/kg orally, after 1 hour, compared to control group, read-out: Prolongation of the bleeding time in % after one hour
Method: The function of the thrombocytes can be determined by measuring the bleeding time. The normal bleeding time in human beings is in the range of 1 to 3 minutes and needs intact thrombozytes in a sufficient number. If the number of thrombocytes is normal and the bleeding time is prolonged, this signifies a disturbed function of the thrombocytes. This is found in some congenital defects of thrombocyte function (V. Willebrand's disease, for example). If, on the other hand it is the aim to prevent spontaneous aggregation of the thrombocytes and occlusion in the arterial system by antithrombotic drugs, the bleeding time should be prolonged as a consequence. Therefore, using antithrombotic substances, a prolongation of the bleeding time is expected. If the plasma coagulation system is not influenced by such a medicine, coagulation tests will give a normal result.
To measure the bleeding time, 10 mg/kg of the test compound is administered orally to conscious mice. After 1 hour, 0.5 mm of the tip of the mousetail is cut off and droplets of blood are gently removed with filter paper every 30 second. The number of drops of blood give a measure for the bleeding time (5 animals/experiment).
The numbers in the following table represent the prolongation in % compared to the control group.

mice = test: Acute toxicity, oral; format: in vivo; conditions: single oral dose of 1,000 mg/kg, 14 days observation
Method: (§1) The acute toxicity of the test compounds was determined on groups of 10 mice each after oral administration of a single dose of 1,000 mg/kg (observation time: 14 days).

Acute toxicity, oral = format: in vivo; conditions: mouse, in vivo; mice, single oral dose, 14 days observation; read-out: Acute Toxicity per os
Method: as §1

[2] = tested on: phosphodiesterase (PDE), supernatant of human blood platelets; test: PDE inhibition (3H-cAMP hydrolysis); format: biochemical; conditions: human blood platelet PDE, 1 μmol/liter 3H-cAMP, pH 7.4, 15 minutes, 37° C.
Method: cAMP is hydrolysed to AMP by phosphodiesterase (PDE) from various sources, including blood platelets. This hydrolysis is inhibited by PDE inhibitors according to the concentration.
The phosphodiesterase used was the 10,000×g supernatant of human blood platelets which had been frozen with water and thawed out again.
An amount of 0.3 ml of a mixture which contained 0.1 mole/liter of trihydroxy-aminomethane (pH 7.4), 3 mmole/liter of magnesium chloride, 1 mmole/liter of AMP, 1 μmol/liter of ^3 H-cAMP (specific activity about 10 MBq/μmol), PDE as well as the substance to be tested and water for the control were incubated for 15 minutes at 37° C.
The incubation was stopped by the addition of 0.5 ml of zinc sulfate (0.266 mole/liter) and 0.5 ml of barium hydroxide (0.266 mole/liter), the precipitate was centrifuged and the activity remaining in the supernatant of the unreacted ^3 H-cAMP was determined. From a comparison of the substance preparations and the control preparations, the concentration for a 50% inhibiting activity (IC50) of the respective substance was calculated.

[3] = tested on: Platelet Thromboses in the Rat; test: Influence on platelet thromboses in the rat (electrical irritation of a vein); format: in vivo; conditions: male rats, five animals per dose, 20 minutes observation, vs. untreated group; dose not given
Method: Literature: H. Poliwoda, J. Lilli, G. Hagemann, D. Schyma: Z. ges. exp. Med., 145, 252 (1968)
Male rats (body weight between 70 and 90 grams) received an intraperitoneal Nembutal anesthesia (dose: 50 to 60 mg/kg). To avoid hypothermia, they were positioned on a heated test table (about 37° C.). The respiratory passage was held free by insertion of a tracheal cannula.
After a transverse abdominal incision was made, an intestinal loop was exposed and fixed, and a vein, with a diameter of about 300 μ was prepared. A monopolar platinum electrode embedded in glass and having a tip diameter of about 100μ was applied to the vein as an irritating cathode. The indifferent electrode was applied to the same vessel opposite the cathode. The irritation was provoked by 150 volts of direct current for a period of 100 milliseconds. After the irritation, the area of observation was continuously rinsed with warm (37° C.) physiological salt solution.
The formation and growth of the thrombosis was followed under a binocular microscope over a time period of 20 minutes. During the entire period of observation, the percentage of the vessel volume closed by the thrombosis was estimated at different time intervals.
Five animals per dose were used, and the results were averaged.
In the test compound experiments, the average size of the thrombosis in the treated animal group was compared with that of an untreated animal group. The result was given as "percentage reduction of the average thrombosis size." The following table contains the values obtained.

[4] = ADP-induced (about 1×10^-6 mol/l), read-out: EC50 (50% inhibition of thrombocyte aggregation), ADP
[5] = collagen-induced, read-out: EC50 (50% inhibition of thrombocyte aggregation), Collagen

SMILES | EC50 [1, 4] [µM] | EC50 [1, 5] [µM] | change in vivo at 10 mg/kg (conscious mice) [%] | animals died (acute toxicity per os) (mice) | LD50 at 336 h (Acute toxicity, oral) [mg/kg] | IC50 [2] [nM] | Percentage Reduction of the Average Thrombosis Size [3] [%]
O=C1CCc2cc(OCCCCSc3ccccc3)ccc2N1 [A, 6-(4-Phenylmercapto-butoxy)-3,4-dihydro-carbostyril] | > 100 | 50 | 145 | 0 out of 10 animals | > 1000 | 780 | –
Nc1c(Br)cc([S+]([O-])CCCCOc2ccc3c(c2)CCC(=O)N3)cc1Br (centres unmarked) [AA, 6-[4-(3,5-Dibromo-4-aminophenylsulfinyl)-butoxy]-3,4-dihydrocarbostyril] | – | – | – | – | – | 250 | –
Nc1c(Br)cc([S+]([O-])CCCCOc2ccc3[nH]c(=O)ccc3c2)cc1Br (centres unmarked) [BB, 6-[4-(3,5-Dibromo-4-aminophenylsulfinyl)-butoxy]-carbostyril] | – | – | – | – | – | 50 | –
O=C1CCc2cc(OCCCC[S+]([O-])c3ccc(C4CCCCC4)cc3)ccc2N1 (centres unmarked) [CC, 6-[4-(4-Cyclohexylphenylsulfinyl)-butoxy]-3,4-dihydro-carbostyril] | – | – | – | – | – | 1600 | –
O=C1CCc2cc(OCCCCSc3ccccn3)ccc2N1 [D, 6-[4-(2-Pyridyl-mercapto)-butoxy]-3,4-dihydro-carbostyril] | > 100 | 45 | 76 | 0 out of 10 animals | > 1000 | 1600 | –
O=c1ccc2cc(OCCCC[S+]([O-])c3ccc(C4CCCCC4)cc3)ccc2[nH]1 (centres unmarked) [DD, 6-[4-(4-Cyclohexylphenylsulfinyl)-butoxy]-carbostyril] | – | – | – | – | – | 40 | 11
CC(C)(C)c1ccc([S+]([O-])CCCCOc2ccc3[nH]c(=O)ccc3c2)cc1 (centres unmarked) [EE, 6-[4-(4-tert.-Butylphenylsulfinyl)-butoxy]-carbostyril] | – | – | – | – | – | 30 | –
O=C1CCc2cc(OCC[S+]([O-])c3ccccc3)ccc2N1 (centres unmarked) [G, 6-(2-Phenylsulfinyl-ethoxy)-3,4-dihydro-carbostyril] | 17 | 3.5 | 5 | 0 out of 10 animals | > 1000 | 3400 | –
O=C1CCc2cc(OCCCC[S+]([O-])Cc3ccccc3)ccc2N1 (centres unmarked) [H, 6-(4-Benzylsulfinyl-butoxy)-3,4-dihydro-carbostyril] | 14 | 2.5 | 29 | 0 out of 10 animals | > 1000 | 1600 | –
CC(C)(C)[S+]([O-])CCCCOc1ccc2c(c1)CCC(=O)N2 (centres unmarked) [HH, 6-(4-tert.Butylsulfinyl-butoxy)-3,4-dihydrocarbostyril] | – | – | – | – | – | – | 19
O=C1CCc2cccc(OCCCCSc3ccccc3)c2N1 [II, 8-(4-Phenylmercapto-butoxy)-3,4-dihydro-carbostyril] | – | – | – | – | – | – | 4
O=c1ccc2cc(OCCCC[S+]([O-])c3ccccn3)ccc2[nH]1 (centres unmarked) [JJ, 6-[4-(2-Pyridylsulfinyl)-butoxy]-carbostyril] | – | – | – | – | – | – | 29
O=C1CCc2cc(OCCCC[S+]([O-])C3CCCCC3)ccc2N1 (centres unmarked) [K, 6-(4-Cyclohexylsulfinyl-butoxy)-3,4-dihydro-carbostyril] | 12 | 4.5 | 12 | 0 out of 10 animals | > 1000 | 2500 | –
Cc1cc(=O)[nH]c2ccc(OCCCC[S+]([O-])c3ccccn3)cc12 (centres unmarked) [KK, 4-Methyl-6-[4-(2-pyridylsulfinyl)-butoxy]-carbostyril] | – | – | – | – | – | – | 17
O=c1ccc2cc(OCCCC[S+]([O-])c3ccccc3)ccc2[nH]1 (centres unmarked) [N, 6-(4-Phenylsulfinyl-butoxy)-carbostyril] | 3 | 0.6 | – | – | – | 470 | 24
CC(C)(C)c1cc([S+]([O-])CCCCOc2ccc3[nH]c(=O)ccc3c2)cc(C(C)(C)C)c1O (centres unmarked) [O, 6-[4-(4-Hydroxy-3,5-di-tert. butylphenyl-sulfinyl)-butoxy]-carbostyril] | 0.5 | 0.2 | 73 | 0 out of 10 animals | > 1000 | 79 | 17
O=C1CCc2cc(OCCCCS(=O)(=O)c3ccc(Cl)c(Cl)c3)ccc2N1 [R, 6-[4-(3,4-Dichlorophenyl-sulfonyl)-butoxy]-3,4-dihydro-carbostyril] | 25 | 1.5 | 30 | 0 out of 10 animals | > 1000 | 1800 | –
O=c1ccc2cc(OCCCC[S+]([O-])c3ccc(-c4ccccc4)cc3)ccc2[nH]1 (centres unmarked) [V, 6-[4-(4-Biphenylylsulfinyl)-butoxy]-carbostyril] | – | – | – | – | – | 120 | –
O=c1ccc2cc(OCCCC[S+]([O-])c3ccc4ccccc4n3)ccc2[nH]1 (centres unmarked) [W, 6-[4-(2-Quinolylsulfinyl)-butoxy]-carbostyril] | – | – | – | – | – | 140 | –
O=c1ccc2cc(OCCCC[S+]([O-])C3CCCCC3)ccc2[nH]1 (centres unmarked) [X, 6-(4-Cyclohexylsulfinyl-butoxy)-carbostyril] | – | – | – | – | – | 700 | –
O=c1ccc2c(Br)c(OCCCC[S+]([O-])c3ccccc3)ccc2[nH]1 (centres unmarked) [Y, 5-Bromo-6-(4-phenylsulfinyl-butoxy)-carbostyril] | – | – | – | – | – | 100 | –
CN(C(=O)C[S+]([O-])CCOc1ccc2[nH]c(=O)ccc2c1)C1CCCCC1 (centres unmarked) [Z, 6-[2-(N-Methyl-N-cyclohexyl-carbamidomethyl-sulfinyl)-ethoxy]-carbostyril] | – | – | – | – | – | 500 | –
